Measured values published in ChEMBL document CHEMBL1201862, “PubChem BioAssay data set” (2004).
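Compound exposure: 48 hours, 5 concentrations, 96-well plates. At the GI50, growth is halved.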 Calls of active or inactive are those of the source. Rule as the data show it: active = GI50 up to about 1.1 µM and inactive = higher.

Tests used:
Assay in all cases: NCI anticancer screen, dose series, 48 h
DLD-1 = tested on: DLD-1
DMS-114 = tested on: DMS-114
HOP-18 = tested on: HOP-18
LXFL 529 = tested on: LXFL 529
M19-MEL = tested on: M19-MEL
SNB-78 = tested on: SNB-78
XF498 = tested on: XF498
KM-20L2 = tested on: KM-20L2
RXF 631 = tested on: RXF 631

| SMILES | GI50 (DLD-1) | GI50 (DMS-114) | GI50 (HOP-18) | GI50 (LXFL 529) | GI50 (M19-MEL) | GI50 (SNB-78) | GI50 (XF498) | GI50 (KM-20L2) | GI50 (RXF 631) |
| --- | --- | --- | --- | --- | --- | --- | --- | --- | --- |
| CC12CC3C(CC1SCC(=O)O2)C3(C)C (centres undefined) | > 100 µM (inactive) | > 100 µM (inactive) | > 100 µM (inactive) | > 100 µM (inactive) | > 100 µM (inactive) | > 100 µM (inactive) | > 100 µM (inactive) | – | – |
| O=[N+]([O-])C1(CO)COC(CCc2ccccc2)OC1 (centres undefined) | > 100 µM (inactive) | – | > 100 µM (inactive) | > 100 µM (inactive) | > 100 µM (inactive) | – | > 100 µM (inactive) | > 100 µM (inactive) | – |
| Cc1cc(C)nc(NS(=O)(=O)c2ccc(NC(=O)c3cccc4c(Nc5ccc(S(=O)(=O)N=C(N)N)cc5)c5ccccc5nc34)cc2)n1 | 7.62 µM (inactive) | – | > 100 µM (inactive) | 3.88 µM (inactive) | 22.1 µM (inactive) | 8.3 µM (inactive) | > 100 µM (inactive) | 34.2 µM (inactive) | 27.3 µM (inactive) |
| CC(C)c1ccc(C2NC(S)=NC3=C2c2ccccc2C3=O)cc1 (centres undefined) | 48.5 µM (inactive) | 21.3 µM (inactive) | – | 38.3 µM (inactive) | 38.9 µM (inactive) | – | 32.4 µM (inactive) | 25.6 µM (inactive) | 54 µM (inactive) |
| CN(C)CC1CCC/C1=N\O (centres undefined) | > 100 µM (inactive) | – | > 100 µM (inactive) | > 100 µM (inactive) | > 100 µM (inactive) | > 100 µM (inactive) | – | > 100 µM (inactive) | – |
| O=C(CCc1n[nH]c(=S)o1)Nc1cc(Cl)ccc1Cl | 79.3 µM (inactive) | – | > 100 µM (inactive) | 76.4 µM (inactive) | > 100 µM (inactive) | > 100 µM (inactive) | – | 48.2 µM (inactive) | – |
| c1ccc(C2(c3ccccc3)SSC3(S2)C2CC4CC(C2)CC3C4)cc1 (centres undefined) | > 100 µM (inactive) | > 100 µM (inactive) | – | > 100 µM (inactive) | – | > 100 µM (inactive) | – | > 100 µM (inactive) | – |
| N#CC(C(=O)/C(=N\NC(N)=O)C(C#N)c1ccc(Cl)cc1)c1ccc(Cl)cc1 (centres undefined) | > 100 µM (inactive) | > 100 µM (inactive) | > 100 µM (inactive) | > 100 µM (inactive) | > 100 µM (inactive) | > 100 µM (inactive) | > 100 µM (inactive) | > 100 µM (inactive) | > 100 µM (inactive) |
| O=C(N/C(=C\c1cccc([N+](=O)[O-])c1)c1nc2ccccc2[nH]1)c1ccccc1 | 55.5 µM (inactive) | 26.7 µM (inactive) | – | 26.1 µM (inactive) | 62.8 µM (inactive) | 44.6 µM (inactive) | 27.7 µM (inactive) | 43.8 µM (inactive) | – |
| Cc1ccc(C2=C(c3ccc(C)cc3)C(c3ccc(C)cc3)=C(c3ccc(C)cc3)C2=O)cc1 | > 100 µM (inactive) | – | > 100 µM (inactive) | > 100 µM (inactive) | > 100 µM (inactive) | > 100 µM (inactive) | > 100 µM (inactive) | > 100 µM (inactive) | > 100 µM (inactive) |
| Cc1cn(C2CC(OC3CCCCO3)C(CO)O2)c(=O)[nH]c1=O (centres undefined) | > 100 µM (inactive) | – | > 100 µM (inactive) | > 100 µM (inactive) | > 100 µM (inactive) | > 100 µM (inactive) | > 100 µM (inactive) | > 100 µM (inactive) | – |
| COc1c(Br)cc(Br)c(OC)c1-c1ccc[nH]1 | 62.5 µM (inactive) | 74.6 µM (inactive) | – | > 100 µM (inactive) | 91 µM (inactive) | > 100 µM (inactive) | – | – | – |
| COC(=O)c1nc(-c2ccc(Cl)c(Cl)c2)nc2ccc(Cl)cc12 | > 100 µM (inactive) | 13.8 µM (inactive) | – | > 100 µM (inactive) | > 100 µM (inactive) | 6.59 µM (inactive) | – | 21 µM (inactive) | – |
| CC(=O)OC12c3ccccc3C1CCCCCC21OCCCO1 (centres undefined) | > 100 µM (inactive) | > 100 µM (inactive) | – | > 100 µM (inactive) | > 100 µM (inactive) | > 100 µM (inactive) | – | > 100 µM (inactive) | – |
| O=C(O)/C(Cl)=C(\Cl)C(=O)NC1C2CC3CC(C2)CC1C3 (centres undefined) | > 100 µM (inactive) | > 100 µM (inactive) | > 100 µM (inactive) | > 100 µM (inactive) | > 100 µM (inactive) | > 100 µM (inactive) | > 100 µM (inactive) | > 100 µM (inactive) | 61 µM (inactive) |
| COC(=O)C1=C(c2cc(OC)c(OC)c(OC)c2)OC(c2ccc3c(c2)OCO3)C1 (centres undefined) | 23 µM (inactive) | 13.9 µM (inactive) | > 100 µM (inactive) | 25.3 µM (inactive) | 21.1 µM (inactive) | 87.3 µM (inactive) | – | 19.7 µM (inactive) | – |

| SMILES | GI50 (DLD-1) | GI50 (DMS-114) | GI50 (HOP-18) | GI50 (LXFL 529) | GI50 (M19-MEL) | GI50 (SNB-78) | GI50 (XF498) | GI50 (KM-20L2) | GI50 (RXF 631) |
| --- | --- | --- | --- | --- | --- | --- | --- | --- | --- |
| C1CCNCC1.S=C(S)N1CCCCC1 | – | 0.24 µM (active) | 100 µM (inactive) | – | 0.685 µM (active) | 100 µM (inactive) | – | 100 µM (inactive) | 4.43 µM (inactive) |
| CC(CC(=O)N1C(=O)C(C)(C)[C@@H](O)[C@H]1CC(C)C(Cl)(Cl)Cl)C(Cl)(Cl)Cl (some centres undefined) | > 100 µM (inactive) | > 100 µM (inactive) | > 100 µM (inactive) | > 100 µM (inactive) | > 100 µM (inactive) | > 100 µM (inactive) | > 100 µM (inactive) | > 100 µM (inactive) | – |
| CCc1ccc(/C(C)=N/NC(N)=S)cc1 | – | 48.9 µM (inactive) | > 100 µM (inactive) | – | > 100 µM (inactive) | > 100 µM (inactive) | 0.569 µM (active) | > 100 µM (inactive) | – |
| CC1(C)OB(O)OC1(C)C | > 100 µM (inactive) | > 100 µM (inactive) | > 100 µM (inactive) | > 100 µM (inactive) | – | > 100 µM (inactive) | > 100 µM (inactive) | > 100 µM (inactive) | – |
| COc1ccc2c(c1[N+](=O)[O-])CC[C@@H]1[C@@H]2CC[C@]2(C)C(=O)CC[C@@H]12 | > 25 µM (inactive) | 18.4 µM (inactive) | > 25 µM (inactive) | – | > 25 µM (inactive) | 24.7 µM (inactive) | 20.4 µM (inactive) | > 25 µM (inactive) | – |
| CCc1cccc(C)c1N1C(=O)C(=O)C(c2nc3ccccc3o2)/C(=N/NC(=S)NN)C1=O (centres undefined) | > 100 µM (inactive) | > 100 µM (inactive) | – | > 100 µM (inactive) | > 100 µM (inactive) | > 100 µM (inactive) | > 100 µM (inactive) | > 100 µM (inactive) | > 100 µM (inactive) |
| CN(C)C(=O)NC(=S)N(C)C | > 100 µM (inactive) | > 100 µM (inactive) | > 100 µM (inactive) | > 100 µM (inactive) | > 100 µM (inactive) | > 100 µM (inactive) | > 100 µM (inactive) | > 100 µM (inactive) | – |
| CCOc1ccc(C2=NN(CC)C(=O)C(C3C(=O)N(c4ccccc4)N=C3C)C2)cc1 (centres undefined) | > 100 µM (inactive) | > 100 µM (inactive) | > 100 µM (inactive) | > 100 µM (inactive) | > 100 µM (inactive) | > 100 µM (inactive) | > 100 µM (inactive) | > 100 µM (inactive) | – |
| CCOc1ccc2[nH]c3c(C)c4ccncc4c(C)c3c2c1 | 0.561 µM (active) | 1.34 µM (inactive) | – | 0.698 µM (active) | 1.51 µM (inactive) | 1.34 µM (inactive) | 0.984 µM (active) | 1.08 µM (active) | 1.27 µM (inactive) |
| CC(C)(C)NC(=O)NC12CC3CC(CC(F)(C3)C1)C2 | > 100 µM (inactive) | > 100 µM (inactive) | – | > 100 µM (inactive) | > 100 µM (inactive) | > 100 µM (inactive) | > 100 µM (inactive) | > 100 µM (inactive) | > 100 µM (inactive) |
| C[Si](C)(C)/C=C\CCO | > 100 µM (inactive) | > 100 µM (inactive) | > 100 µM (inactive) | > 100 µM (inactive) | > 100 µM (inactive) | > 100 µM (inactive) | > 100 µM (inactive) | > 100 µM (inactive) | > 100 µM (inactive) |
| Nc1ncnc2c1ncn2CCOC(c1ccccc1)P(=O)(O)O (centres undefined) | > 100 µM (inactive) | – | – | > 100 µM (inactive) | > 100 µM (inactive) | > 100 µM (inactive) | – | > 100 µM (inactive) | – |
| CCCC(=O)OCC(O)CO (centres undefined) | > 5000 µM (inactive) | > 5000 µM (inactive) | 1730 µM (inactive) | > 5000 µM (inactive) | > 5000 µM (inactive) | > 5000 µM (inactive) | – | – | – |
| Cc1nccc2c1cnc1ccnn12 | > 100 µM (inactive) | > 100 µM (inactive) | – | > 100 µM (inactive) | > 100 µM (inactive) | > 100 µM (inactive) | – | > 100 µM (inactive) | > 100 µM (inactive) |
| CNC(=S)NC1CCCCC1NC(=S)NC (centres undefined) | > 100 µM (inactive) | > 100 µM (inactive) | > 100 µM (inactive) | > 100 µM (inactive) | > 100 µM (inactive) | > 100 µM (inactive) | > 100 µM (inactive) | > 100 µM (inactive) | > 100 µM (inactive) |
